Like-named read-outs stand apart in the source and are kept apart here.
How the values were obtained:
[1] = target: T1, CMV polymerase (Human cytomegalovirus, UniProt P08546); experiment: modified version of the HCMV polymerase assay (100% DMSO dilution, DTT, different enzyme lot); format: biochemical; settings: for IC50: read-out: IC50
T1 construct: made in house; host or cells: recombinant baculovirus-infected SF-9 cells
Method: The HCMV polymerase assay is performed using a scintillation proximity assay (SPA) as described in several references, such as N. D. Cook, et al., Pharmaceutical Manufacturing International, pages 49-53 (1992); K. Takeuchi, Laboratory Practice, September issue (1992); U.S. Pat. No. 4,568,649 (1986); which are incorporated by reference herein. Reactions are performed in 96-well plates. The assay is conducted in 100 μl volume with 5.4 mM HEPES (pH 7.5), 11.7 mM KCl, 4.5 mM MgCl2, 0.36 mg/ml BSA, and 90 nM ^3H-dTTP. Assays are run with and without CHAPS, (3-[(3-Cholamidopropyl)-dimethylammonio]-1-propane-sulfonate) at a final concentration of 2 mM. HCMV is diluted in enzyme dilution buffer containing 50% glycerol, 250 mM NaCl, 10 mM HEPES (pH 7.5), 100 pg/ml BSA, and 0.01% sodium azide. The HCMV polymerase, which is expressed in recombinant baculovirus-infected SF-9 cells and purified according to literature procedures, is added at 10% (or 10 μl) of the final reaction volume, i.e., 100 μl. Compounds are diluted in 50% DMSO and 10 μl are added to each well. Control wells contain an equivalent concentration of DMSO. Unless noted otherwise, reactions are initiated via the addition of 6 nM biotinylated poly(dA)-oligo(dT) template/primer to reaction mixtures containing the enzyme, substrate, and compounds of interest. Plates are incubated in a 25° C. of 37° C. H2O bath and terminated via the addition of 40 μl/reaction of 0.5 M EDTA (pH 8) per well. Reactions are terminated within the time-frame during which substrate incorporation is linear and varied depending upon the enzyme and conditions used, i.e., 30 min. for HCMV polymerase. Ten μl of streptavidin-SPA beads (20 mg/ml in PBS/10% glycerol) are added following termination of the reaction. Plates are incubated 10 min. at 37° C., then equilibrated to room temperature, and counted on a Packard Topcount. Linear regressions are performed and IC50's are calculated using computer software. Results of the testing of compounds of the present invention in this assay are shown in Tables 1, 2, 5, 9, 10, 11, 13 (except for the last compound which was tested under modified conditions) and 14 below.
A modified version of the above HCMV polymerase assay is performed as described above, but with the following changes: Compounds are diluted in 100% DMSO until final dilution into assay buffer. In the previous assay, compounds are diluted in 50% DMSO. 4.5 mM dithiotherotol (DTT) is added to the polymerase buffer.

T1 sequence (P08546 whole entry): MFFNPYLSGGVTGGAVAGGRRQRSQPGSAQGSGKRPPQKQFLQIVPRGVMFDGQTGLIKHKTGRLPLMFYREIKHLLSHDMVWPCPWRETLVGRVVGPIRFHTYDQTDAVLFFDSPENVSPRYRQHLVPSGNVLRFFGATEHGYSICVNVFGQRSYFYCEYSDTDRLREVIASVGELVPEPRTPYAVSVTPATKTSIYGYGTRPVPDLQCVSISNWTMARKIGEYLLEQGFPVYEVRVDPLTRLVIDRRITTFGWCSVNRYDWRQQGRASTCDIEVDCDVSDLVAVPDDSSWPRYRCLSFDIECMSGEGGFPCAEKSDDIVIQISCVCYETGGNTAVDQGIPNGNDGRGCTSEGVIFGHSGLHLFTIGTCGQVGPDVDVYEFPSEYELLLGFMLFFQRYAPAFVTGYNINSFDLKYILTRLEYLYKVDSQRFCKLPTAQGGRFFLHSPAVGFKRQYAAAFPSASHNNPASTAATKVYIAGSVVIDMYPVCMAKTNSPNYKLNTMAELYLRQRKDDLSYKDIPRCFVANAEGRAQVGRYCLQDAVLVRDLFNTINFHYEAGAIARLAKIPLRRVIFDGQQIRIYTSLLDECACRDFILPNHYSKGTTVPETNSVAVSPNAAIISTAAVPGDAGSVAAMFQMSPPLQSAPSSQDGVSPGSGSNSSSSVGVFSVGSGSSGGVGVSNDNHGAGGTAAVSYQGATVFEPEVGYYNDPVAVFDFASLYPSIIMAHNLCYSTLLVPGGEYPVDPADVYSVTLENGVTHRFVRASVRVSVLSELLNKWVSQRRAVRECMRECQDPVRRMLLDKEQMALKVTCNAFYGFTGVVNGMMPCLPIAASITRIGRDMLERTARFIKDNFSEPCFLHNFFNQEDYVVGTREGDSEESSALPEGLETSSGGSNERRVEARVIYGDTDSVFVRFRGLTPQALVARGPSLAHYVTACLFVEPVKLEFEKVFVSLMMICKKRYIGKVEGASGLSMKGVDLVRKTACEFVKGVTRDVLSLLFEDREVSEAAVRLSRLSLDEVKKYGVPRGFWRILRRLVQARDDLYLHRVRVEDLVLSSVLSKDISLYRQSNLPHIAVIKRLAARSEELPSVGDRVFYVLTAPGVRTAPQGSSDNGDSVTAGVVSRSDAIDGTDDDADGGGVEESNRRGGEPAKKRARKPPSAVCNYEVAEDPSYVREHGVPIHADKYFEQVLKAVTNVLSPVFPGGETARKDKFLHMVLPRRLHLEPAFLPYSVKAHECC

## Cc1ccc2c(Cl)cc(S(=O)(=O)NCCc3ccc(NS(=O)(=O)c4c(C)noc4C)cc3)c(O)c2n1 [Example 65, 5-Chloro-8-hydroxy-2-methyl-N-[2-[4-[[(3,5-dimethyl-4-isoxazolyl)sulfonyl]amino]phenyl]ethyl]-7-quinoline-sulfonamide]
other
  melting point: 147 to 152 °C (dec.)
[1]; Concentration 3.13 μM, Table 6
  inhibition at 3.13 µM: -8%
[1]; Concentration 6.25 μM, Table 6
  inhibition at 6.25 µM: -8%
[1]; Concentration 12.5 μM, Table 6
  inhibition at 12.5 µM: -13%
[1]; Concentration 25 μM, Table 6
  inhibition at 25 µM: -21%
[1]; Concentration 50 μM, Table 6
  inhibition at 50 µM: -23%
[1]; Concentration 100 μM, Table 6
  inhibition at 100 µM: -23%
[1]; Concentration 200 μM, Table 6
  inhibition at 200 µM: -8%
[1]; Table 6
  IC50: > 200 µM

## Cc1ccc2c(Cl)cc(S(=O)(=O)NCCc3ccccn3)c(O)c2n1 [Example 62, 5-Chloro-8-hydroxy-2-methyl-N-[2-(2-pyridinyl)ethyl]-7-quinolinesulfonamide]
other
  melting point: 153 to 155 °C
[1]; Concentration 3.13 μM, Table 6
  inhibition at 3.13 µM: 1%
[1]; Concentration 6.25 μM, Table 6
  inhibition at 6.25 µM: 3%
[1]; Concentration 12.5 μM, Table 6
  inhibition at 12.5 µM: 6%
[1]; Concentration 25 μM, Table 6
  inhibition at 25 µM: 10%
[1]; Concentration 50 μM, Table 6
  inhibition at 50 µM: 14%
[1]; Concentration 100 μM, Table 6
  inhibition at 100 µM: 33%
[1]; Concentration 200 μM, Table 6
  inhibition at 200 µM: 42%
[1]; Table 6
  IC50: > 200 µM

## O=S(=O)(NCCSc1ccccc1)c1cc(Cl)c2ccc(/C=C/c3ccccc3)nc2c1O [Example 63, (E)-5-Chloro-8-hydroxy-2-(2-phenylethenyl)-N-[2-(phenylthio)ethyl]-7-quinolinesulfonamide]
other
  melting point: 187 to 193 °C
[1]; Concentration 3.13 μM, Table 6
  inhibition at 3.13 µM: 29%
[1]; Concentration 6.25 μM, Table 6
  inhibition at 6.25 µM: 34%
[1]; Concentration 12.5 μM, Table 6
  inhibition at 12.5 µM: 49%
[1]; Concentration 25 μM, Table 6
  inhibition at 25 µM: 71%
[1]; Concentration 50 μM, Table 6
  inhibition at 50 µM: 74%
[1]; Concentration 100 μM, Table 6
  inhibition at 100 µM: 92%
[1]; Table 6
  IC50: 11.4 µM

## Cc1ccc2c(Cl)cc(S(=O)(=O)NCCCN3CCOCC3)c(O)c2n1 [Example 36, 5-Chloro-8-hydroxy-2-methyl-N-[3-(4-morpholinyl)propyl]-7-quinoline-sulfonamide]
other
  melting point: 245 to 257 °C
[1]; Concentration 3.13 uM, Table 3
  inhibition at 3.13 µM: -1%
[1]; Concentration 6.25 uM, Table 3
  inhibition at 6.25 µM: -3%
[1]; Concentration 12.5 uM, Table 3
  inhibition at 12.5 µM: 6%
[1]; Concentration 25 uM, Table 3
  inhibition at 25 µM: 0%
[1]; Concentration 50 uM, Table 3
  inhibition at 50 µM: 15%
[1]; Concentration 100 uM, Table 3
  inhibition at 100 µM: 3%
[1]; Concentration 200 uM, Table 3
  inhibition at 200 µM: 19%
[1]; Table 3
  IC50: > 200 µM

## Cc1ccc2c(Cl)cc(S(=O)(=O)NCCCc3ccccc3)c(O)c2n1 [Example 34, 5-Chloro-8-hydroxy-2-methyl-N-(3-phenylpropyl)-7-quinoline-sulfonamide]
other
  melting point: 131 to 134 °C
[1]; Concentration 6.25 uM, Table 3
  inhibition at 6.25 µM: 21%
[1]; Concentration 12.5 uM, Table 3
  inhibition at 12.5 µM: 57%
[1]; Concentration 25 uM, Table 3
  inhibition at 25 µM: 63%
[1]; Concentration 50 uM, Table 3
  inhibition at 50 µM: 54%
[1]; Concentration 100 uM, Table 3
  inhibition at 100 µM: 97%
[1]; Table 3
  IC50: 17.2 µM

## Cc1ccc2c(Cl)cc(S(=O)(=O)NCCc3ccc(NS(=O)(=O)c4ccccc4)cc3)c(O)c2n1 [Example 66, 5-Chloro-8-hydroxy-2-methyl-N-[2-[4-[(phenylsulfonyl)-amino]phenyl]ethyl]-7-quinolinesulfonamide]
other
  melting point: 269 to 272 °C
[1]; Concentration 6.25 μM, Table 6
  inhibition at 6.25 µM: 41%
[1]; Concentration 6.25 μM, Table 6, 6.25 µM
  % Inhibition: 30%
[1]; Concentration 25 μM, Table 6
  inhibition at 25 µM: 57%
[1]; Concentration 25 μM, Table 6, 25 µM
  % Inhibition: 77%
[1]; Concentration 50 μM, Table 6
  inhibition at 50 µM: 64%
[1]; Concentration 50 μM, Table 6, 50 µM
  % Inhibition: 71%
[1]; Concentration 100 μM, Table 6
  inhibition at 100 µM: 86%
[1]; Concentration 100 μM, Table 6, 100 µM
  % Inhibition: 91%
[1]; Concentration 200 μM, Table 6
  inhibition at 200 µM: 89%
[1]; Concentration 200 μM, Table 6, 200 µM
  % Inhibition: 88%

## Cc1ccc2c(Cl)cc(S(=O)(=O)NC(c3ccccc3)c3ccccc3)c(O)c2n1 [Example 38, 5-Chloro-N-(diphenylmethyl)-8-hydroxy-2-methyl-7-quinoline-sulfonamide]
other
  melting point: 115 to 119 °C
[1]; Concentration 6.25 uM, Table 3
  inhibition at 6.25 µM: 36%
[1]; Concentration 12.5 uM, Table 3
  inhibition at 12.5 µM: 58%
[1]; Concentration 25 uM, Table 3
  inhibition at 25 µM: 62%
[1]; Concentration 50 uM, Table 3
  inhibition at 50 µM: 96%
[1]; Concentration 100 uM, Table 3
  inhibition at 100 µM: 97%
[1]; Table 3
  IC50: 10.5 µM

## Cc1ccc2c(Cl)cc(S(=O)(=O)N[C@@H](C)c3ccccc3)c(O)c2n1 [Example 40, (S)-5-Chloro-8-hydroxy-2-methyl-N-(1-phenylethyl)-7-quinolinesulfonamide]
other
  melting point: 83 to 87 °C
[1]; Concentration 3.13 uM, Table 3
  inhibition at 3.13 µM: 22%
[1]; Concentration 6.25 uM, Table 3
  inhibition at 6.25 µM: 36%
[1]; Concentration 12.5 uM, Table 3
  inhibition at 12.5 µM: 47%
[1]; Concentration 25 uM, Table 3
  inhibition at 25 µM: 53%
[1]; Concentration 50 uM, Table 3
  inhibition at 50 µM: 80%
[1]; Concentration 100 uM, Table 3
  inhibition at 100 µM: 94%
[1]; Table 3
  IC50: 13.7 µM

Reference: US6500842B1, “8-hydroxy-7-substituted quinolines as anti-viral agents” (Pharmacia & Upjohn Company, priority 1996, dated 2002)
